Structures can show the parent of a compound that is named as a salt.
Assays:
[1] = system: DLD-1; assay: MTS assay, DLD-1 cells; type: cell-based; settings: Homo sapiens, 72 hours
How it was run: (§1)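 First, seed 3000 cells per well in low-serum (1% FBS) DMEM and culture 18 h. Next, add compounds prepared at 300× in DMSO and diluted 1:40 in DMEM; incubate 72 h. Finally, add MTS/PMS for 4 h and measure absorbance at 492 nm.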

[2] = system: KATO III; assay: MTS assay, KATO III cells; type: cell-based; settings: Homo sapiens, 72 hours
How it was run: as §1

[3] = system: MDA-MB-231; assay: MTS assay, MDA-MB-231 cells; type: cell-based; settings: Homo sapiens, 72 hours
How it was run: as §1

[4] = system: NCI-H1299; assay: MTS assay, NCI-H1299 cells; type: cell-based; settings: Homo sapiens, 72 hours
How it was run: as §1

[5] = system: PACA-2; assay: MTS assay, PACA-2 cells; type: cell-based; settings: 72 hours
How it was run: as §1

[6] = molecular target: ABL T315I (Homo sapiens, UniProt P00519, T315I); assay: ABL Kinase Activity Assay (Elisa), ABL T315I; type: biochemical; settings: ATP 100 μM, read-out: Abl(T315I) Enzymetic assay (Elisa) % inhibition
How it was run: (§2)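 Recombinant ABL or ABL T315I (0.089 nM final) preincubated 20 min with compound, then reacted 1 h at room temperature with 100 μM ATP and 128 nM biotinylated AblTide in Tris pH 7.0/MgCl2 buffer. Phosphopeptide captured on streptavidin and detected by anti-phosphotyrosine ELISA with alkaline phosphatase secondary and Attophos fluorescence.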

[7] = molecular target: ABL (Homo sapiens, UniProt P00519); assay: ABL Kinase Activity Assay (Elisa), ABL; type: biochemical; settings: ATP 100 μM, read-out: Abl Enzymetic assay (Elisa) % inhibition
How it was run: as §2

[8] = system: PC-3; assay: MTS assay, PC-3 cells; type: cell-based; settings: Homo sapiens, 72 hours
How it was run: as §1

Row | SMILES | melting point [°C] | inhibition at 10 µM [6] [%] | inhibition at 10 µM [7] [%] | inhibition at 10 µM [1] [%] | inhibition at 10 µM [2] [%] | inhibition at 10 µM [3] [%] | inhibition at 10 µM [4] [%] | inhibition at 10 µM [5] [%] | inhibition at 10 µM [8] [%]
1 | CN(C)CCCCCNc1ncc2c(n1)-c1cccnc1Nc1cnccc1-2 (as salt: TFA) [Example 48, N′-9H-dipyrido[2,3-b:4′,3′-f]pyrimido[4,5-d]azepin-2-yl-N,N-dimethylpentane-1,5-diamine] | 133 to 136 | – | – | – | – | – | – | – | –
2 | c1ccc(CNc2ncc3c(n2)-c2cccnc2Nc2cnccc2-3)nc1 (as salt: TFA) [Example 49, N-(pyridin-2-ylmethyl)-9H-dipyrido[2,3-b:4′,3′-f]pyrimido[4,5-d]azepin-2-amine] | 253 to 255 | – | – | – | – | – | – | – | –
3 | CN(C)CCCNc1ncc2c(n1)-c1cccnc1Nc1cnccc1-2 (as salt: TFA) [Example 50, N′-9H-dipyrido[2,3-b:4′,3′-f]pyrimido[4,5-d]azepin-2-yl-N,N-dimethylpropane-1,3-diamine] | > 253 | – | – | – | – | – | – | – | –
4 | Clc1cccc(CNc2ncc3c(n2)-c2cccnc2Nc2cnccc2-3)c1 [Example 1, N-(3-chlorobenzyl)-9H-dipyrido[2,3-b:4′,3′-f]pyrimido[4,5-d]azepin-2-amine] | 195 to 196 | 80 to 100 | 80 to 100 | 50 to 79 | 80 to 100 | < 50 | 50 to 79 | < 50 | –
5 | Fc1ccc(CNc2ncc3c(n2)-c2cccnc2Nc2cnccc2-3)c(F)c1 [Example 2, N-(2,4-difluorobenzyl)-9H-dipyrido[2,3-b:4′,3′-f]pyrimido[4,5-d]azepin-2-amine] | 264 to 266 | 80 to 100 | 80 to 100 | < 50 | 50 to 79 | < 50 | 50 to 79 | < 50 | –
6 | c1cnc2c(c1)-c1nc(NC3CCCCC3)ncc1-c1ccncc1N2 [Example 35, N-cyclohexyl-9H-dipyrido[2,3-b:4′,3′-f]pyrimido[4,5-d]azepin-2-amine] | – | 80 to 100 | 80 to 100 | < 50 | 50 to 79 | < 50 | 50 to 79 | < 50 | < 50
7 | Fc1cccc(CNc2ncc3c(n2)-c2cccnc2Nc2cnccc2-3)c1 [Example 39, N-(3-fluorobenzyl)-9H-dipyrido[2,3-b:4′,3′-f]pyrimido[4,5-d]azepin-2-amine] | – | 80 to 100 | 80 to 100 | 80 to 100 | 80 to 100 | 80 to 100 | 80 to 100 | 80 to 100 | 80 to 100
8 | Cc1cccc(CNc2ncc3c(n2)-c2cccnc2Nc2cnccc2-3)c1 [Example 40, N-(3-methylbenzyl)-9H-dipyrido[2,3-b:4′,3′-f]pyrimido[4,5-d]azepin-2-amine] | – | 80 to 100 | 80 to 100 | 50 to 79 | 50 to 79 | 50 to 79 | 50 to 79 | 80 to 100 | 80 to 100
9 | COc1ccc(CCNc2ncc3c(n2)-c2cccnc2Nc2cnccc2-3)cc1 [Example 42, N-[2-(4-methoxyphenyl)ethyl]-9H-dipyrido[2,3-b:4′,3′-f]pyrimido[4,5-d]azepin-2-amine] | – | 80 to 100 | 80 to 100 | 50 to 79 | 80 to 100 | < 50 | < 50 | < 50 | < 50

More lines, main results first:

Row | melting point [°C] | inhibition at 10 µM [6] [%] | inhibition at 10 µM [7] [%] | SMILES | inhibition at 10 µM [1] [%] | inhibition at 10 µM [2] [%] | inhibition at 10 µM [3] [%] | inhibition at 10 µM [4] [%] | inhibition at 10 µM [5] [%] | inhibition at 10 µM [8] [%]
10 | 154 to 156 | – | – | CN(C)CCCCNc1ncc2c(n1)-c1cccnc1Nc1cnccc1-2 (as salt: TFA) [Example 51, N′-9H-dipyrido[2,3-b:4′,3′-f]pyrimido[4,5-d]azepin-2-yl-N,N-dimethylbutane-1,4-diamine] | – | – | – | – | – | –
11 | 189 to 191 | – | – | c1cnc2c(c1)-c1nc(NC3CCNCC3)ncc1-c1ccncc1N2 (as salt: TFA) [Example 59, N-piperidin-4-yl-9H-dipyrido[2,3-b:4′,3′-f]pyrimido[4,5-d]azepin-2-amine] | – | – | – | – | – | –
12 | 151 to 153 | – | – | c1cnc2c(c1)-c1nc(NCC3CCNCC3)ncc1-c1ccncc1N2 (as salt: TFA) [Example 60, N-(piperidin-4-ylmethyl)-9H-dipyrido[2,3-b:4′,3′-f]pyrimido[4,5-d]azepin-2-amine] | – | – | – | – | – | –
13 | – | < 50 | 50 to 79 | CN(C)CCCCNc1ncc2c(n1)-c1cccnc1Nc1cnccc1-2 [Example 51, N′-9H-dipyrido[2,3-b:4′,3′-f]pyrimido[4,5-d]azepin-2-yl-N,N-dimethylbutane-1,4-diamine] | < 50 | 80 to 100 | 80 to 100 | < 50 | < 50 | 80 to 100
14 | 153 to 155 | 80 to 100 | 80 to 100 | Cc1cccc2c(CCNc3ncc4c(n3)-c3cccnc3Nc3cnccc3-4)c[nH]c12 [Example 52, N-[2-(7-methyl-1H-indol-3-yl)ethyl]-9H-dipyrido[2,3-b:4′,3′-f]pyrimido[4,5-d]azepin-2-amine] | 50 to 79 | 80 to 100 | < 50 | 50 to 79 | < 50 | < 50
15 | > 300 | – | – | Nc1ccc(-c2ncc3c(n2)-c2cccnc2Nc2cnccc2-3)cc1 [Example 53, 4-(9H-dipyrido[2,3-b:4′,3′-f]pyrimido[4,5-d]azepin-2-yl)aniline] | < 50 | < 50 | < 50 | < 50 | < 50 | < 50
16 | > 300 | – | – | c1ccc(-c2ncc3c(n2)-c2cccnc2Nc2cnccc2-3)cc1 [Example 54, 2-phenyl-9H-dipyrido[2,3-b:4′,3′-f]pyrimido[4,5-d]azepine] | < 50 | < 50 | < 50 | < 50 | – | < 50
17 | 208 to 211 | – | – | c1cnc2c(c1)-c1nc(NCc3ccnc4[nH]ccc34)ncc1-c1ccncc1N2 [Example 55, N-(1H-pyrrolo[2,3-b]pyridin-4-ylmethyl)-9H-dipyrido[2,3-b:4′,3′-f]pyrimido[4,5-d]azepin-2-amine] | 80 to 100 | 80 to 100 | < 50 | 50 to 79 | 80 to 100 | 80 to 100
18 | 208 to 211 | – | – | OCCc1cccc(Nc2ncc3c(n2)-c2cccnc2Nc2cnccc2-3)c1 [Example 56, 2-[3-(9H-dipyrido[2,3-b:4′,3′-f]pyrimido[4,5-d]azepin-2-ylamino)phenyl]ethanol] | 50 to 79 | 80 to 100 | < 50 | 50 to 79 | 80 to 100 | < 50
19 | – | < 50 | 50 to 79 | c1cnc2c(c1)-c1nc(NCC3CCNCC3)ncc1-c1ccncc1N2 [Example 60, N-(piperidin-4-ylmethyl)-9H-dipyrido[2,3-b:4′,3′-f]pyrimido[4,5-d]azepin-2-amine] | 50 to 79 | 80 to 100 | 80 to 100 | 50 to 79 | 80 to 100 | 80 to 100
20 | – | < 50 | < 50 | OCCc1ccc(Nc2ncc3c(n2)-c2cccnc2Nc2ccccc2-3)cc1 [Example 63, 2-[4-(9H-pyrido[2,3-b]pyrimido[4,5-d][1]benzazepin-2-ylamino)phenyl]ethanol] | 50 to 79 | 50 to 79 | < 50 | < 50 | 80 to 100 | 50 to 79
21 | 188 to 190 | – | – | Cc1cccc2c(CCNc3ncc4c(n3)-c3cccnc3Nc3ccccc3-4)c[nH]c12 [Example 65, N-[2-(7-methyl-1H-indol-3-yl)ethyl]-9H-pyrido[2,3-b]pyrimido[4,5-d][1]benzazepin-2-amine] | 80 to 100 | 80 to 100 | 50 to 79 | 80 to 100 | 80 to 100 | 80 to 100
22 | 285 to 288 | – | – | c1ccc2c(c1)Nc1ncccc1-c1nc(NCc3ccnc4[nH]ccc34)ncc1-2 [Example 66, N-(1H-pyrrolo[2,3-b]pyridin-4-ylmethyl)-9H-pyrido[2,3-b]pyrimido[4,5-d][1]benzazepin-2-amine] | 50 to 79 | 80 to 100 | 50 to 79 | 50 to 79 | 80 to 100 | 50 to 79

Reference: patent US8349827B2, “Substituted dipyrido-pyrimido-diazepine and benzo-pyrido-pyrimido compounds” (ArQule, Inc., priority 2009, dated 2013)
